Laboratory results as given in patent US10906915B2, “Substituted pyrazoloazepin-4-ones and their use as phosphodiesterase inhibitors” (LEO Pharma A/S, priority 2016, dated 2021).

Each molecule was assayed against human PDE4D catalytic domain (UniProt no. Q08499) (Homo sapiens (Human), UniProt Q08499) (assay: PDE4 assay (TR-FRET, FAM-cAMP cleavage)). Details: human PDE4D catalytic domain; molar concentration giving 50% inhibition of substrate cleavage; read-out: PDE4 IC50 range.
Assay type: biochemical
Summary of the method: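 Read-out is time-resolved FRET from Tb donor to FAM-AMP captured on trivalent-metal nanoparticles added to stop the reaction. Substrate was a mix of plain and FAM-labelled cAMP, cleaved by human PDE4D catalytic domain ([…]) with titrated compound; IC50 ranges (nM) versus controls.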

human PDE4D catalytic domain, sequence (Q08499 380-740 limits assumed): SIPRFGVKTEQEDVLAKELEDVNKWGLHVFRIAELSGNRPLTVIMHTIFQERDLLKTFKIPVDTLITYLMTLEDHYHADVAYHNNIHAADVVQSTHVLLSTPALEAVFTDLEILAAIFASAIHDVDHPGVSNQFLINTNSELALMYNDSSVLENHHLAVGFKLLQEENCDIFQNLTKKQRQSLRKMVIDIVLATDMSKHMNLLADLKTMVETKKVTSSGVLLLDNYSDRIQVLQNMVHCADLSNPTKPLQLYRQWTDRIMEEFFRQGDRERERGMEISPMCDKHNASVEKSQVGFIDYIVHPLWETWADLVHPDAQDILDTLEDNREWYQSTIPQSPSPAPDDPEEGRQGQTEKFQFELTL

| SMILES | IC50 [nM] |
| --- | --- |
| CCc1nn(C[C@@H](C)COC(=O)c2ccc(C(=O)N3CCCC3)cc2)c2c1C(=O)NCC1(CCOCC1)C2 [Example 257, [(2R)-3-(3-ethyl-4-oxo-spiro[6,8-dihydro-5H-pyrazolo[4,3-c]azepine-7,4′-tetrahydropyran]-1-yl)-2-methyl-propyl] 4-(pyrrolidine-1-carbonyl)benzoate] | < 100 |
| CCOc1cccc(C(=O)OCCCn2nc(CC)c3c2CC2(CCOCC2)CNC3=O)c1 [Example 61, 3-(3-ethyl-4-oxo-spiro[6,8-dihydro-5H-pyrazolo[4,3-c]azepine-7,4′-tetrahydropyran]-1-yl)propyl 3-ethoxybenzoate] | < 100 |
| CCc1nn(CCCOC(=O)c2ccc(Cl)cc2F)c2c1C(=O)NCC1(CCOCC1)C2 [Example 85, 3-(3-ethyl-4-oxo-spiro[6,8-dihydro-5H-pyrazolo[4,3-c]azepine-7,4′-tetrahydropyran]-1-yl)propyl 4-chloro-2-fluoro-benzoate] | < 100 |
| CCc1nn(C[C@@H](C)COC(=O)c2ccc(F)c(Cl)c2)c2c1C(=O)NCC1(CCOCC1)C2 [Example 204, [(2R)-3-(3-ethyl-4-oxo-spiro[6,8-dihydro-5H-pyrazolo[4,3-c]azepine-7,4′-tetrahydropyran]-1-yl)-2-methyl-propyl] 3-chloro-4-fluoro-benzoate] | < 100 |
| CCc1nn(CCCOC(=O)c2cccc(C(=O)N3CCCCC3)c2)c2c1C(=O)NCC1(CCOCC1)C2 [Example 156, 3-(3-ethyl-4-oxo-spiro[6,8-dihydro-5H-pyrazolo[4,3-c]azepine-7,4′-tetrahydropyran]-1-yl)propyl 3-(piperidine-1-carbonyl)benzoate] | < 100 |
| CCc1nn(CCCOC(=O)c2cc(Cl)ccc2C(F)(F)F)c2c1C(=O)NCC1(CCOCC1)C2 [Example 124, 3-(3-ethyl-4-oxo-spiro[6,8-dihydro-5H-pyrazolo[4,3-c]azepine-7,4′-tetrahydropyran]-1-yl)propyl 5-chloro-2-(trifluoromethyl)benzoate] | < 100 |
| CCc1nn(C[C@@H](C)COC(=O)c2cc(Cl)ccc2OC)c2c1C(=O)NCC1(CCOCC1)C2 [Example 210, [(2R)-3-(3-ethyl-4-oxo-spiro[6,8-dihydro-5H-pyrazolo[4,3-c]azepine-7,4′-tetrahydropyran]-1-yl)-2-methyl-propyl] 5-chloro-2-methoxy-benzoate] | < 100 |
| CCc1nn(C[C@@H](C)COC(=O)c2cccc(OC)c2)c2c1C(=O)NCC1(CCOCC1)C2 [Example 171, [(2R)-3-(3-ethyl-4-oxo-spiro[6,8-dihydro-5H-pyrazolo[4,3-c]azepine-7,4′-tetrahydropyran]-1-yl)-2-methyl-propyl] 3-methoxybenzoate] | < 100 |
| CCc1nn(C[C@@H](C)COC(=O)c2ccc(S(=O)(=O)C(C)C)cc2)c2c1C(=O)NCC1(CCOCC1)C2 [Example 243, [(2R)-3-(3-ethyl-4-oxo-spiro[6,8-dihydro-5H-pyrazolo[4,3-c]azepine-7,4′-tetrahydropyran]-1-yl)-2-methyl-propyl] 4-isopropylsulfonylbenzoate] | < 100 |
| CCc1nn(CCCOC(=O)c2cccc(C(F)(F)F)c2)c2c1C(=O)NCC1(CCOCC1)C2 [Example 96, 3-(3-ethyl-4-oxo-spiro[6,8-dihydro-5H-pyrazolo[4,3-c]azepine-7,4′-tetrahydropyran]-1-yl)propyl 3-(trifluoromethyl)benzoate] | < 100 |
| CCc1nn(CCCOC(=O)c2ccc(S(=O)(=O)N(C)C)cc2)c2c1C(=O)NCC1(CCOCC1)C2 [Example 131, 3-(3-ethyl-4-oxo-spiro[6,8-dihydro-5H-pyrazolo[4,3-c]azepine-7,4′-tetrahydropyran]-1-yl)propyl 4-(dimethylsulfamoyl) benzoate] | < 100 |

Same assay, conditions: read-out: PDE4 IC50 range

| SMILES | IC50 [nM] |
| --- | --- |
| CCc1nn(CCCCOC(=O)c2ccc(S(=O)(=O)N3CCOCC3)cc2)c2c1C(=O)NCC1(CCOCC1)C2 [Example 378, 4-(3-ethyl-4-oxo-spiro[6,8-dihydro-5H-pyrazolo[4,3-c]azepine-7,4′-telrahydropyran]-1-yl)butyl 4-morpholinosulfonylbenzoate] | 100 to 500 |
